Laboratory results reported in US10005721B2, “Dimethylbenzoic acid compounds” (Eli Lilly and Company, priority 2013, dated 2018).

Tests used:
[1] = target: T1, human EP1 (Homo sapiens, UniProt P34995); experiment: In vitro binding to human EP1 ([3H]-PGE2 displacement, membranes); settings: HEK293 membranes, geometric mean ± SD, read-out: hEP1, Ki
T1 construct: expressed in transfected cells
T1 sequence (P34995 1-402): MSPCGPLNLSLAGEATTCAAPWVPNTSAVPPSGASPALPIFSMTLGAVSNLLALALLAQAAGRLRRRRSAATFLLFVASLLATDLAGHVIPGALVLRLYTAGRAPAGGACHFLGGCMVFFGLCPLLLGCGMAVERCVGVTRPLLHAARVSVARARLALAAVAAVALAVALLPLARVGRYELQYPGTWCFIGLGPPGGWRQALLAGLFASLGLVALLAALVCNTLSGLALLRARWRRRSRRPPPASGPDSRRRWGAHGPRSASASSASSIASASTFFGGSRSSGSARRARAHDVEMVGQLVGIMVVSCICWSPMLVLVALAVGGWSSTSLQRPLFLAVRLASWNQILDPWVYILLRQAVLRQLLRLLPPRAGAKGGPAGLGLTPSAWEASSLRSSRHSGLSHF
Description: (§1) hEP1 and hEP4 membranes are prepared from recombinant HEK293 cells stably expressing human EP1 (Genbank accession number AY275470) or EP4 (Genbank accession number AY429109) receptors. hEP2 and hEP3 membranes are prepared from HEK293 cells transiently transfected with EP2 (Genbank accession number AY275471) or EP3 (isoform VI: Genbank accession number AY429108) receptor plasmids. Frozen cell pellets are homogenized in homogenization buffer using a Teflon/glass homogenizer. Membrane protein is aliquoted and quick frozen on dry ice prior to storage at −80° C. Homogenization buffer contained 10 mM Tris-HCl, pH 7.4, 250 mM sucrose, 1 mM EDTA, 0.3 mM indomethacin and plus Complete™, with EDTA, obtained from Roche Molecular Biochemicals (Catalog Number 1 697 498).
(§2) Kd values for [^3H]-PGE2 binding to each receptor are determined by saturation binding studies or homologous competition. […] Non-specific binding is calculated by comparing binding in the presence and absence of 2 μM of PGE2. The membranes are harvested by filtration (TomTek harvester), washed 4 times with cold buffer (10 mM MES pH 6.0 with KOH, 10 mM MgCl2), dried in a 60° C. oven, and the radioactivity is quantified as counts per minute (CPM) using a TopCount detector. Percent specific binding is calculated as the percent of the binding in the absence of any inhibitor, corrected for binding in the presence of 2 uM of PGE2. […]

[2] = target: T2, human EP2 (Homo sapiens, UniProt P43116); experiment: In vitro binding to human EP2 ([3H]-PGE2 displacement, membranes); settings: HEK293 membranes, geometric mean ± SD, read-out: hEP2, Ki
T2 construct: expressed in transfected cells; host or cells: HEK293 (transient)
T2 sequence (P43116 whole entry): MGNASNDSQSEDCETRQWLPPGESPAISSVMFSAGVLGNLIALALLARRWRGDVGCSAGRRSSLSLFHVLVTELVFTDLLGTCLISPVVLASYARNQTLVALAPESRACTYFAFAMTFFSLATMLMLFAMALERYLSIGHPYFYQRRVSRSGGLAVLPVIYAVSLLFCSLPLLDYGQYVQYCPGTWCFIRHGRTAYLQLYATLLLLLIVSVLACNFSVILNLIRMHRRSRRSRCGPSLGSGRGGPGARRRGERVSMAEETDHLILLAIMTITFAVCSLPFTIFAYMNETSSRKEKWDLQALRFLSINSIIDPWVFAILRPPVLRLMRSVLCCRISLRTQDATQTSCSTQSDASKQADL
Description: as §1, §2

[3] = target: T3, human EP3 (isoform VI) (Homo sapiens, UniProt P43115); experiment: In vitro binding to human EP3 ([3H]-PGE2 displacement, membranes); settings: HEK293 membranes, geometric mean ± SD, read-out: hEP3, Ki
T3 construct: expressed in transfected cells; host or cells: HEK293 (transient)
T3 sequence (P43115 1-374 isoform P43115-4): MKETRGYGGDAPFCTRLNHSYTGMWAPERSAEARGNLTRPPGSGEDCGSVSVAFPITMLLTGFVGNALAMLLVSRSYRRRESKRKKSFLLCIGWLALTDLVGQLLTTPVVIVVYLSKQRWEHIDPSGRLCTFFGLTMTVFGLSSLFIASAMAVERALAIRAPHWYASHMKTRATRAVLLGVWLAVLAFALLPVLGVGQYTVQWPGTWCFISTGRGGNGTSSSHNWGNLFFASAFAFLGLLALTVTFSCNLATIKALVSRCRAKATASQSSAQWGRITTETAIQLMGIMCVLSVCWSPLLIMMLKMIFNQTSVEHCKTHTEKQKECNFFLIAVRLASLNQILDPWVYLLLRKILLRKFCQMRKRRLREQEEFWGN
Description: as §1, §2

[4] = target: T4, human EP4 (Homo sapiens, UniProt P35408); experiment: In vitro binding to human EP4 ([3H]-PGE2 displacement, membranes); settings: HEK293 membranes, geometric mean ± SD, read-out: hEP4, Ki
T4 construct: expressed in transfected cells
T4 sequence (P35408 whole entry): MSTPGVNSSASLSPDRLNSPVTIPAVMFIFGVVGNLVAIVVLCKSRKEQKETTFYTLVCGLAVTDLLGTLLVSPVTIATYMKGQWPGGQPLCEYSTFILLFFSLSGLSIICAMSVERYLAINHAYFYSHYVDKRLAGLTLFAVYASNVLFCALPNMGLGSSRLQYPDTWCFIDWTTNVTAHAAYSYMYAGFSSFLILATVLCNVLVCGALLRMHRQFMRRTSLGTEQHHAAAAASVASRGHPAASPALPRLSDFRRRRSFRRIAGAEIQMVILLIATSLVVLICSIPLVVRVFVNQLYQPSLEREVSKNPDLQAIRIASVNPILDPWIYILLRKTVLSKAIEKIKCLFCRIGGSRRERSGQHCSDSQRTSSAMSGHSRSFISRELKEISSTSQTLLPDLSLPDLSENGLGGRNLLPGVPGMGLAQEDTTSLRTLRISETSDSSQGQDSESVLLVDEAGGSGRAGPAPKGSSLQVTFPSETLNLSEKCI
Description: as §1, §2

[5] = target: T4, human EP4; experiment: In vitro human EP4 functional antagonist activity (PGE2-stimulated cAMP, HTRF, HEK293); type: cell-based; settings: HEK293 cells expressing human EP4, EC80 of PGE2; geometric mean ± SD; read-out: IC50, inhibition of PGE2-stimulated cAMP production, human EP4
Description: Assays are conducted in recombinant HEK293 cells stably expressing human EP4 receptor. The cell lines are maintained by culturing in DMEM with high glucose and pyridoxine hydrochloride (Invitrogen) supplemented with 10% fetal bovine serum (FBS), 1 mM sodium pyruvate, 10 mM HEPES, […] and 2 mM L-glutamine. Confluent cultures are grown at 37° C. in an atmosphere containing 5% CO2. Cells are harvested using 2.5% Trypsin-EDTA, suspended in freeze media (FBS with 6% DMSO) at 10^7 cells/mL and aliquots are stored in liquid nitrogen. Just before assay, cells are thawed in DMEM, centrifuged, and resuspended in cAMP buffer.
The inhibition of PGE2-stimulated cAMP production by EP4 antagonists is measured using HTRF; (Cisbio catalog #62AM4PEB). […] The HTRF signal is detected using an EnVision® plate reader (Perkin-Elmer) to calculate the ratio of fluorescence at 665 nm to 620 nm. […] Results are expressed as the geometric mean±standard deviation; n=number of independent determinations. The standard deviation is calculated by the delta method, being Slog IC50×geometric mean×ln(10).

[6] = target: T5, rat EP4 (Rattus norvegicus, UniProt P43114); experiment: In vitro rat EP4 functional antagonist activity (PGE2-stimulated cAMP, HTRF, HEK293); type: cell-based; settings: HEK293 cells expressing rat EP4, PGE2 at EC80, cAMP HTRF; read-out: IC50 measured at rat EP4
T5 construct: expressed in transfected cells
T5 sequence (P43114 whole entry): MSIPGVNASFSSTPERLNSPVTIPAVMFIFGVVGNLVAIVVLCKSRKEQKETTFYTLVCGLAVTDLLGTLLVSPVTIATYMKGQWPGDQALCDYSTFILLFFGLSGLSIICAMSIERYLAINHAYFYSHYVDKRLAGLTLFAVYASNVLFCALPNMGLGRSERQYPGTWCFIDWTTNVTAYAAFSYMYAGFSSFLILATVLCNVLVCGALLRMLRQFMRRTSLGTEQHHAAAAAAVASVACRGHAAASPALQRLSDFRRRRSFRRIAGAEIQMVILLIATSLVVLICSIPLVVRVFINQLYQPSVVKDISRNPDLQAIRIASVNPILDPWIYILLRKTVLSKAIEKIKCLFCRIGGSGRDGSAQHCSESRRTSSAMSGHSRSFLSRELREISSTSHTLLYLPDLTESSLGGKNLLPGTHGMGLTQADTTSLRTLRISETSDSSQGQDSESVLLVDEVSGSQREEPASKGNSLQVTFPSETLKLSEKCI
Description: Rat EP4 cDNA (Genebank Accession# NM 03276) is cloned into pcDNA 3.1 vector and subsequently transfected in HEK293 cells for receptor expression. Rat EP4 stable clone is scaled up and then frozen down as cell bank for future compounds screening. To test EP4 antagonist compounds in rEP4 cells, thaw the frozen cells and then resuspend cells in cAMP assay buffer. The cAMP buffer is made by HBSS without Phenol Red (Hyclone, SH30268) supplemented with 20 mM HEPES (Hyclone, SH30237), 0.1% BSA (Gibco, 15260) and 125 μM IBMX (Sigma, 15879). The cells are plated into 96-well half area flat-bottom polystyrene black plates (Costar 3694). Compounds are serial diluted with DMSO to give 10-point concentration response curves. Then diluted compounds are added into cAMP assay buffer which contains PGE2 (Cayman 14010, in a concentration predetermined to produce an EC80) at ratio of DMSO/buffer at 1/100. The cells are treated with compounds in the presence of PGE2 (EC80 concentration) for 30 minutes at room temperature. The cAMP levels generated from the cells are quantified by a cAMP HTRF assay kit (Cisbio 62AM4PEC). The plates are read on an EnVision plate reader using HTRF optimized protocol (PerkinElmer). IC50's are calculated using Graphpad Prism (v. 4) nonlinear regression, sigmoidal dose response curve fitting.

[7] = system: LPS-induced TNFα production in human whole blood; experiment: In vitro antagonist activity in human whole blood (reversal of PGE2 inhibition of LPS-induced TNFα); type: cell-based; settings: 10 μg/mL LPS, 10 nM PGE2, geometric mean ± SD, read-out: IC50, reversal of inhibitory effect of PGE2 on LPS-induced TNFα production
Text: The inhibitory effects of PGE2 on LPS-induced TNFα production from macrophages/monocytes are believed to be mediated by EP4 receptors (See Murase, A., et al., Life Sciences, 82:226-232 (2008)). The ability of the compound of Example 1 to reverse the inhibitory effect of PGE2 on LPS-induced TNFα production in human whole blood is an indicia of functional activity.
Blood is collected from normal volunteer donors into sodium heparin vacutainer tubes. Donors have not taken NSAIDs or celecoxib within 48 hours or glucocorticoids within two weeks of the donation. All tubes/donor are pooled into 50 mL Falcon conical centrifuge tubes and 98 μL/well is distributed into 96-well tissue culture plates (Falcon 3072). […] TNFα levels in 2 μL plasma are quantified by a commercially available enzyme immunoassay (R&D Systems DY210), using Immulon 4 HBX plates (Thermo 3855) and 3,3′,5,5′ tetramethylbiphenyl-4,4′-diamine substrate (KPL 50-76-03). The plates are read at A450-A650 on a plate reader (Molecular Devices Versamax) using SOFTmaxPRO (v. 4.3.1) software. IC50s are calculated using Graphpad Prism (v. 4) nonlinear regression, sigmoidal dose response curve fitting. Results are expressed as the geometric mean±standard deviation; n=number of independent determinations. The standard deviation is calculated by the delta method, being SDlog IC50×geometric mean×ln(10).

SMILES	Ki [1] [nM]	Ki [2] [nM]	Ki [3] [nM]	Ki [4] [nM]	IC50 [5] [nM]	IC50 [6] [nM]	IC50 [7] [nM]
Cc1ccc(-c2cccc(CO)c2)cc1C(=O)Nc1c(C)ccc(C(=O)O)c1C [Example 1, 3-[[5-[3-(Hydroxymethyl)phenyl]-2-methyl-benzoyl]amino]-2,4-dimethyl-benzoic acid]	> 18800	5850 ± 1010	> 14800	2.18 ± 1.74	2.31 ± 2.02	1.51	59.5 ± 37.8
Cc1ccc(-c2cccc(CO)c2)nc1C(=O)Nc1c(C)ccc(C(=O)O)c1C [Example 22, 3-[[6-[3-(Hydroxymethyl)phenyl]-3-methyl-pyridine-2-carbonyl]amino]-2,4-dimethyl-benzoic acid]	> 17500	> 18900	> 14000	2.07 ± 1.31	–	–	–
